## CCN(C)C(=S)Nc1cc(C)c(Oc2cccc(C(C)(C)C)c2)cc1C [Compound 27, N′-(4-{[3-(1,1-dimethylethyl)phenyl]oxy}-2,5-dimethylphenyl)-N-ethyl-N-methylthiourea]
  melting point: 125 °C
